± gives the standard deviation of the averaged measurements.
Legend:
STS26T [1] = assay: drug sensitivity score (DSS, CellTox-Green cytotoxicity, 72 h) (DSS (dimensionless)); higher = more cytotoxic; extreme values may be limits of the assay
Summary of the method: (§1)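 For 72 h at 37 °C, MPNST cell lines and primary human Schwann cells were exposed in 384-well plates to five 10-fold compound dilutions. CellTox-Green, added before seeding at a final 1:1000 dilution, gave fluorescence from DNA released by disrupted cells. Signals were scaled to vehicle and positive-control wells, cultures failing plate quality control were left out, and four-parameter logistic fits were applied. Relative IC50 and drug sensitivity score were derived from the fits, with IC50 censored at the top concentration.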

S1507-2 [2] = assay: as above
Summary of the method: as §1

HS-PSS [3] = assay: as above
Summary of the method: as §1

[4] = system: HSC2 (primary human Schwann cells); assay: as above
Summary of the method: as §1

ST8814 [5] = assay: as above
Summary of the method: as §1

[6] = system: HSC1 (primary human Schwann cells); assay: as above
Summary of the method: as §1

STS26T [7] = assay: drug sensitivity score (DSS, CellTiter-Glo viability, 72 h) (DSS (dimensionless)); higher = more sensitive; extreme values may be limits of the assay
Summary of the method: (§2)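 MPNST cell lines and primary human Schwann cells were seeded at 750–1000 cells per well into 384-well plates preprinted with each compound at five concentrations in 10-fold steps, then incubated 72 h at 37 °C, 5% CO2. CellTiter-Glo ATP luminescence gave viability, scaled between vehicle and positive-control wells, with duplicates averaged where present. Curves were fitted with a four-parameter logistic model. Percent inhibition refers to the top concentration, while drug sensitivity score and relative IC50, censored at the top concentration, come from these fits.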

S1507-2 [8] = assay: as above
Summary of the method: as §2

YST-1 [9] = assay: as above
Summary of the method: as §2

HS-PSS [10] = assay: as above
Summary of the method: as §2

[11] = system: HSC2 (primary human Schwann cells); assay: as above
Summary of the method: as §2

ST8814 [12] = assay: as above
Summary of the method: as §2

[13] = system: HSC1 (primary human Schwann cells); assay: as above
Summary of the method: as §2

S462 [14] = assay: as above
Summary of the method: as §2

HS-Sch-2 [15] = assay: as above
Summary of the method: as §2

STS26T [16] = assay: % inhibition of CellTiter-Glo viability at highest tested concentration (72 h), relative to DMSO and benzethonium chloride controls; higher = more inhibition
Summary of the method: as §2

S1507-2 [17] = assay: as above
Summary of the method: as §2

YST-1 [18] = assay: as above
Summary of the method: as §2

HS-PSS [19] = assay: as above
Summary of the method: as §2

[20] = system: HSC2 (primary human Schwann cells); assay: as above
Summary of the method: as §2

ST8814 [21] = assay: as above
Summary of the method: as §2

[22] = system: HSC1 (primary human Schwann cells); assay: as above
Summary of the method: as §2

S462 [23] = assay: as above
Summary of the method: as §2

HS-Sch-2 [24] = assay: as above
Summary of the method: as §2

| SMILES | drug sensitivity score (STS26T [1]) | drug sensitivity score (S1507-2 [2]) | drug sensitivity score (HS-PSS [3]) | drug sensitivity score [4] | drug sensitivity score (ST8814 [5]) | drug sensitivity score [6] | drug sensitivity score (STS26T [7]) | drug sensitivity score (S1507-2 [8]) | drug sensitivity score (YST-1 [9]) | drug sensitivity score (HS-PSS [10]) | drug sensitivity score [11] | drug sensitivity score (ST8814 [12]) | drug sensitivity score [13] | drug sensitivity score (S462 [14]) | drug sensitivity score (HS-Sch-2 [15]) | % inhibition (STS26T [16]) [%] | % inhibition (S1507-2 [17]) [%] | % inhibition (YST-1 [18]) [%] | % inhibition (HS-PSS [19]) [%] | % inhibition [20] [%] | % inhibition (ST8814 [21]) [%] | % inhibition [22] [%] | % inhibition (S462 [23]) [%] | % inhibition (HS-Sch-2 [24]) [%] |
| --- | --- | --- | --- | --- | --- | --- | --- | --- | --- | --- | --- | --- | --- | --- | --- | --- | --- | --- | --- | --- | --- | --- | --- | --- |
| OC[C@H]1O[C@@H](n2cnc3c2N=CNC[C@H]3O)C[C@@H]1O [Pentostatin] (max concentration tested 10000 nM) | 0 | 0 | 0 | 0 | 0 | 0 | 0 | 0 | 1.08 | 0 | 0 | 0 | 0 | 0 | 0 | -3.81 | -4.44 ± 9.6 | 9.08 | 6.06 | 0.65 | -0.684 | 4.07 | -16.1 ± 7.5 | 8.51 |
| CNC(=O)c1cc(Oc2ccc(NC(=O)Nc3ccc(Cl)c(C(F)(F)F)c3)c(F)c2)ccn1 [Regorafenib] (max concentration tested 10000 nM) | 0.529 | 0 | 0 | 0 | 1.04 | 0 | 4.35 | 2.21 ± 1.2 | 6.49 | 1.9 | 6.19 | 7.57 | 4.61 | 7.19 ± 0.46 | 4.17 | 49.9 | 33.7 ± 17 | 73 | 43 | 78.6 | 74.2 | 73.8 | 80.9 ± 5.1 | 84.1 |
| CO[C@H]1C[C@@H]2CC[C@@H](C)[C@@](O)(O2)C(=O)C(=O)N2CCCC[C@H]2C(=O)O[C@H]([C@H](C)C[C@@H]2CC[C@@H](OCCO)[C@H](OC)C2)CC(=O)[C@H](C)/C=C(\C)[C@@H](O)[C@@H](OC)C(=O)[C@H](C)C[C@H](C)/C=C/C=C/C=C/1C [Everolimus] (max concentration tested 100 nM) | 0 | 6.46 ± 9.1 | 0 | 0 | 0 | 0 | 15.6 | 6.7 ± 1.1 | 4.45 | 3.56 | 15.8 | 7.31 | 17.2 | 8.44 ± 0.54 | 3.17 | 45.4 | 31 ± 1.7 | 38.7 | 23.8 | 48.5 | 28.3 | 44.5 | 29.4 ± 7.3 | 18.4 |
| O=NN(CCCl)C(=O)NC1CCCCC1 [Lomustine] (max concentration tested 10000 nM) | 0 | 0 | 0 | 0 | 0 | 0 | 0 | 0 | 0 | 0 | 0 | 0 | 0 | 0 | 0 | 0.864 | -7.84 ± 0.87 | 0.78 | -0.39 | -3.35 | -8.13 | -0.952 | -9.57 ± 4 | -15 |
| CS(=O)(=O)CCNCc1ccc(-c2ccc3ncnc(Nc4ccc(OCc5cccc(F)c5)c(Cl)c4)c3c2)o1 [Lapatinib] (max concentration tested 1000 nM) | 0 | 0 | 0 | 0 | 0 | 0 | 0.0002 | 0 | 0.63 | 0 | 0 | 0 | 0 | 0 | 0 | 10.1 | 2.48 ± 6 | 22.2 | 6.86 | 5.46 | -2.6 | 7.8 | -5.81 ± 6.8 | 1.85 |
| CCn1c(-c2nonc2N)nc2cnc(Oc3cccc(NC(=O)c4ccc(OCCN5CCOCC5)cc4)c3)cc21 (max concentration tested 10000 nM) | 5.6 | 2.06 ± 2.4 | 0 | 0.268 | 0 | 1.62 | 5.65 | 3.11 ± 0.81 | 6.84 | 4.2 | 18.1 | 2.57 | 16.9 | 3.9 ± 0.086 | 6.03 | 50.7 | 36.1 ± 2.2 | 49.8 | 47.1 | 71.3 | 34.9 | 70.6 | 43.6 ± 3.2 | 58 |
| Cc1cn(-c2cc(NC(=O)c3ccc(C)c(Nc4nccc(-c5cccnc5)n4)c3)cc(C(F)(F)F)c2)cn1 [Nilotinib] (max concentration tested 10000 nM) | 0 | 0 | 0 | 0.117 | 0 | 0 | 0 | 0 | 1.13 | 1.65 | 0 | 0 | 0 | 0 | 3.88 | -1.55 | 2.99 ± 0.13 | 20.6 | 23.5 | 2.6 | -12.2 | 0.687 | -3.63 ± 4.4 | 15.4 |
| O=C(c1cc(Cc2n[nH]c(=O)c3ccccc23)ccc1F)N1CCN(C(=O)C2CC2)CC1 [Olaparib] (max concentration tested 10000 nM) | 1.04 | 0.075 ± 0.11 | 0 | 0.201 | 1.56 | 0 | 3.17 | 1.07 ± 0.15 | 10.2 | 1.4 | 3.8 | 1.85 | 3.07 | 4.85 ± 0.63 | 2.98 | 46.3 | 25.7 ± 8.5 | 69 | 23.2 | 39.3 | 41.6 | 38.1 | 61.15 ± 0.35 | 32.8 |
| COc1cc2c(Oc3ccc4[nH]c(C)cc4c3F)ncnc2cc1OCCCN1CCCC1 [Cediranib] (max concentration tested 1000 nM) | 0 | 0.112 ± 0.16 | 0 | 0.638 | 0.0254 | 0 | 0 | 0.908 ± 0.43 | 0 | 1.71 | 0 | 0 | 0.0876 | 0 | 0 | 4.34 | 19.9 ± 0.91 | -10.3 | 20.1 | -10.7 | 8.47 | 12.1 | -3.01 ± 12 | 1.32 |
| CC(=O)Nc1ccc(C(=O)Nc2ccccc2N)cc1 [Tacedinaline] (max concentration tested 1000 nM) | 0 | 0 | 0 | 0 | 0 | 0 | 0 | 0 | 0 | 0 | 0 | 0 | 0 | 0 | 0 | 4.09 | 2.24 ± 3.5 | 9.24 | 0.39 | 0.407 | -2.81 | 6.93 | 6.18 ± 0.36 | -2.17 |
| COc1cc(Nc2ncc3c(n2)-c2ccc(Cl)cc2C(c2c(F)cccc2OC)=NC3)ccc1C(=O)O [Alisertib] (max concentration tested 10000 nM) | 18.8 | 4.28 ± 3.2 | 0 | 0 | 7.04 | 0 | 14.9 | 11.77 ± 0.033 | 15 | 3.93 | 17.5 | 10.5 | 16.7 | 18.8 ± 1.3 | 11.3 | 58.4 | 50.5 ± 5.3 | 47.5 | 44.7 | 57.6 | 59.4 | 65.5 | 59.1 ± 1 | 64.5 |
| N#CCNC(=O)c1ccc(-c2ccnc(Nc3ccc(N4CCOCC4)cc3)n2)cc1 [Momelotinib] (max concentration tested 10000 nM) | 0 | 0.683 ± 0.4 | 0 | 1.87 | 0 | 0.946 | 3.24 | 3.09 ± 0.61 | 5.7 | 3.21 | 8.06 | 3.16 | 7.64 | 4.7 ± 0.25 | 5.45 | 58.8 | 67.1 ± 11 | 55.4 | 49.2 | 81.2 | 41.6 | 76.8 | 74.7 ± 4.7 | 60.3 |
| O=C(/C=C/c1cccc(S(=O)(=O)Nc2ccccc2)c1)NO [Belinostat] (max concentration tested 10000 nM) | 12.7 | 12.2 ± 2 | 4.69 | 8.85 | 12.4 | 8.65 | 13 | 16.6 ± 0.76 | 18.1 | 10.8 | 13.2 | 17.2 | 15.4 | 12.7 ± 0.28 | 13.7 | 98.9 | 104 ± 1.3 | 101 | 88.1 | 101 | 102 | 102 | 102.5 ± 0.29 | 101 |

Source: the supplement of paper PMC5579334
